# Measurements taken from patent publication US20250325677A1, “STAT6 DEGRADERS” (Gilead Sciences, Inc., priority 2024, published 2025).
# Tested on: eotaxin-3 release
# Assay: Human whole blood eotaxin-3 assay (IL-4 stimulated)
# Type: cell-based
# Details: human whole blood, IL-4 0.4 nM, 48 hours; geometric mean; given for compounds with >80% Emax; read-out: Eotaxin-3 EC50
# Description: Human Whole Blood Eotaxin-3 Assay
# This was a human whole blood assay using recombinant human Interleukin 4 to stimulate the blood and measuring the ability of the test compounds to inhibit eotaxin-3 release. Compounds or media were added to the wells and incubated together with human whole blood for 120 minutes at 37° C. Subsequently, recombinant IL-4 was added at a final concentration of 0.4 nM. The plates were incubated for 48 hours.
# Test compounds which inhibited eotaxin-3 release upon stimulation with human IL-4 (E. coli) interfered with the signaling in human whole blood are expected to have activity in human beings. […] The EC50 value indicates at which concentration test compounds were active and in inhibiting the eotaxin-3 release. As eotaxin-3 release is down-stream of STAT6 signaling both STAT6 inhibitors and STAT6 degraders are active in this assay.
# The data from the human whole blood eotaxin-3 assay is shown below for Examples 3e27, 3e50, 3e17, and 3e51 (where the effect in % is plotted against the test concentration in M on a log-scale).
row,EC50 [nM],SMILES
1,6.7,"CNc1ccc(-c2ccnc3c2cc([C@H](C)N2CC=C(c4c(C)cc(C(=O)N5CCC(CN6CCN(c7cc8c(cc7F)n(C7CCC(=O)NC7=O)c(=O)n8C)CC6)CC5)cc4F)CC2)n3C)cn1 (stereo partly drawn) [Example 3h45, 3-(6-fluoro-5-(4-((1-(3-fluoro-5-methyl-4-(1-((S)-1-(1-methyl-4-(6-(methylamino)pyridin-3-yl)-1H-pyrrolo[2,3-b]pyridin-2-yl)ethyl)-1,2,3,6-tetrahydropyridin-4-yl)benzoyl)piperidin-4-yl)methyl)piperazin-1-yl)-3-methyl-2-oxo-2,3-dihydro-1H-benzo[d]imidazol-1-yl)piperidine-2,6-dione]"

# Biological target: STAT6 (Homo sapiens (Human), UniProt P42226)
# Sequence (P42226 whole entry): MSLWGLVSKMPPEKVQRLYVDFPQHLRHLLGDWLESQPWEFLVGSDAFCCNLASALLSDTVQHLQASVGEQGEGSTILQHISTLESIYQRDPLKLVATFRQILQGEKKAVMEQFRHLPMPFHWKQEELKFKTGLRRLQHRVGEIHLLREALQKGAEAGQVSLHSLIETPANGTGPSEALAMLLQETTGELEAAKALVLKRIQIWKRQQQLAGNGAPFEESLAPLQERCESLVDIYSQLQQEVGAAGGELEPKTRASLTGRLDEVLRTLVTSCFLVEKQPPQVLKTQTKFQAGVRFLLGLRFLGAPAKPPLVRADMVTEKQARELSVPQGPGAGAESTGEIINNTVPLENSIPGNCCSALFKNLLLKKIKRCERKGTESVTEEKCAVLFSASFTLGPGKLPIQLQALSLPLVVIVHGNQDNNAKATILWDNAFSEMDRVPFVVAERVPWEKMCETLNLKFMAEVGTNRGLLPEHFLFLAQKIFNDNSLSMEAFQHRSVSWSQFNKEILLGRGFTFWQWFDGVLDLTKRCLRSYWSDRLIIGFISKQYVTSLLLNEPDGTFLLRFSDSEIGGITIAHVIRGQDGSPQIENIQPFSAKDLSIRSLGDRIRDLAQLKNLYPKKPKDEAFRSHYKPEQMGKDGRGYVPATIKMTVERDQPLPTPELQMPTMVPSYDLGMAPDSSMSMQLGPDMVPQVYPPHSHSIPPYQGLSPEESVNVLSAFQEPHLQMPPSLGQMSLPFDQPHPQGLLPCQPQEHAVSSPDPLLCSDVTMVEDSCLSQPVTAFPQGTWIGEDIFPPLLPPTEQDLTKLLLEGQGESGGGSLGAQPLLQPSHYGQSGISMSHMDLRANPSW
# Assay: STAT6 degrader assay (HiBiT, HeLa LgBiT clone 4.14)
# Type: cell-based
# Details: HeLa LgBiT clone 4.14, 4-24 h; geometric mean; given for compounds with >80% Emax; read-out: STAT6 degradation DC50
# In short: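 HeLa LgBiT clone 4.14 cells with HiBiT knocked into endogenous STAT6 were treated with compound for 4-24 h at 37° C. Luminescence after Nano-GLO substrate (0.5 h) measured remaining STAT6; 50 μM terfenadine wells defined 100% degradation, and DC50 (nM) was derived.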
row,SMILES,DC50 [nM]
1,"C[C@@H](c1cc2c(-c3ccc4[nH]ncc4c3)ccnc2n1C)N1CCC(c2ccc(C(=O)N3CCC(CN4CCN(Cc5ccc6c(c5)n(C5CC5)c(=O)n6C5CCC(=O)NC5=O)CC4)CC3)cc2)CC1 (stereo partly drawn) [Example 3e11, 3-(5-((4-((1-(4-(1-((S)-1-(4-(1H-indazol-5-yl)-1-methyl-1H-pyrrolo[2,3-b]pyridin-2-yl)ethyl)piperidin-4-yl)benzoyl)piperidin-4-yl)methyl)piperazin-1-yl)methyl)-3-cyclo-propyl-2-oxo-2,3-dihydro-1H-benzo[d]imidazol-1-yl)piperidine-2,6-dione]",0.9
2,"Cc1cc(C(=O)N2CCC(CN3CCN(Cc4ccc5c(c4)n(C4CC4)c(=O)n5[C@@H]4CCC(=O)NC4=O)C[C@@H]3C)CC2)cc(F)c1C1=CCN([C@@H](C)c2cc3c(-c4ccc(N)nc4)ccnc3n2C)CC1 (single isomer, unassigned) [Example 3h17]",0.8
3,"Cn1c(CN2CCC(c3ccc(C(=O)N4CCC(CN5CCN(Cc6ccc7c(c6F)n(C)c(=O)n7C6CCC(=O)NC6=O)CC5)CC4)cc3)CC2)cc2c(-c3ccc(N)nc3)ccnc21 (stereo not drawn) [Example 3e14, 3-(5-((4-((1-(4-(1-((4-(6-aminopyridin-3-yl)-1-methyl-1H-pyrrolo[2,3-b]pyridin-2-yl)methyl)piperidin-4-yl)benzoyl)piperidin-4-yl)methyl)piperazin-1-yl)methyl)-4-fluoro-3-methyl-2-oxo-2,3-dihydro-1H-benzo[d]imidazol-1-yl)piperidine-2,6-dione]",1.5
4,"Cn1c(CN2CCC(c3ccc(C(=O)N4CCC(CN5CCN(Cc6ccc7c(c6)n(C)c(=O)n7C6CCC(=O)NC6=O)CC5)CC4)cc3)CC2)cc2c(-c3ccc4[nH]ncc4c3)ccnc21 (stereo not drawn) [Example 3e1, 3-(5-((4-((1-(4-(1-((4-(1H-indazol-5-yl)-1-methyl-1H-pyrrolo[2,3-b]pyridin-2-yl)methyl)piperidin-4-yl)benzoyl)piperidin-4-yl)methyl)piperazin-1-yl)methyl)-3-methyl-2-oxo-2,3-dihydro-1H-benzo[d]imidazol-1-yl)piperidine-2,6-dione]",0.6
5,"CNc1ccc(-c2ccnc3c2cc([C@H](C)N2CCC(c4ccc(C(=O)N5CCC(CN6CCN(Cc7ccc8c(c7)n(C)c(=O)n8[C@H]7CCC(=O)NC7=O)C[C@@H]6C)CC5)cc4)CC2)n3C)cn1 [Example 3h4, (S)-3-(3-methyl-5-(((S)-3-methyl-4-((1-(4-(1-((S)-1-(1-methyl-4-(6-(methylamino)pyridin-3-yl)-1H-pyrrolo[2,3-b]pyridin-2-yl)ethyl)piperidin-4-yl)benzoyl)piperidin-4-yl)methyl)piperazin-1-yl)methyl)-2-oxo-2,3-dihydro-1H-benzo[d]imidazol-1-yl)piperidine-2,6-dione]",1
6,"C[C@@H](c1cc2c(-c3ccc(N)nc3)ccnc2n1C)N1CCC(c2ccc(C(=O)N3CCC(CN4CCN(Cc5ccc6c(c5)n(CC(F)(F)F)c(=O)n6C5CCC(=O)NC5=O)CC4)CC3)cc2)CC1 (stereo partly drawn) [Example 3e25, 3-(5-((4-((1-(4-(1-((S)-1-(4-(6-aminopyridin-3-yl)-1-methyl-1H-pyrrolo[2,3-b]pyridin-2-yl)ethyl)piperidin-4-yl)benzoyl)piperidin-4-yl)methyl)piperazin-1-yl)methyl)-2-oxo-3-(2,2,2-trifluoroethyl)-2,3-dihydro-1H-benzo[d]imidazol-1-yl)piperidine-2,6-dione]",4
7,"CNc1ccc(-c2ccnc3c2cc([C@H](C)N2CCC(c4ccc(C(=O)N5CCC(CN6CCN(Cc7cc8c(cc7F)n([C@@H]7CCC(=O)NC7=O)c(=O)n8C)C[C@@H]6C)CC5)cc4)CC2)n3C)cn1 [Example 3h22, (R)-3-(6-fluoro-3-methyl-5-(((S)-3-methyl-4-((1-(4-(1-((S)-1-(1-methyl-4-(6-(methylamino)pyridin-3-yl)-1H-pyrrolo[2,3-b]pyridin-2-yl)ethyl)piperidin-4-yl)benzoyl)piperidin-4-yl)methyl)piperazin-1-yl)methyl)-2-oxo-2,3-dihydro-1H-benzo[d]imidazol-1-yl)piperidine-2,6-dione]",0.9

# Now from value to molecule:
row,DC50 [nM],SMILES
1,0.1,"CN(C(=O)c1ccc(C2CCN(Cc3cc4c(-c5ccc(N)nc5)ccnc4n3C)CC2)cc1)c1ccc(C2CCN(Cc3ccc4c(c3)oc(=O)n4C3CCC(=O)NC3=O)CC2)cc1 (stereo not drawn) [Example 3n3, 4-(1-((4-(6-aminopyridin-3-yl)-1-methyl-1H-pyrrolo[2,3-b]pyridin-2-yl)methyl)piperidin-4-yl)-N-(4-(1-((3-(2,6-dioxopiperidin-3-yl)-2-oxo-2,3-dihydrobenzo[d]oxazol-6-yl)methyl)piperidin-4-yl)phenyl)-N-methylbenzamide]"
2,1.8,"Cn1c(CN2CCC(c3ccc(C(=O)N4CCC(CN5CCN(c6ccc7c(c6)n(C)c(=O)n7C6CCC(=O)NC6=O)CC5)CC4)cc3)CC2)cc2c(-c3ccc4[nH]ncc4c3)ccnc21 (stereo not drawn) [Example 3m2, 3-(5-(4-((1-(4-(1-((4-(1H-indazol-5-yl)-1-methyl-1H-pyrrolo[2,3-b]pyridin-2-yl)methyl)-piperidin-4-yl)benzoyl)piperidin-4-yl)methyl)piperazin-1-yl)-3-methyl-2-oxo-2,3-dihydro-1H-benzo[d]imidazol-1-yl)piperidine-2,6-dione]"

# Same assay, conditions: HeLa LgBiT clone 4.14, 4-24 h; read-out: STAT6 degradation Emax (%)
row,Emax [%],SMILES
1,< 20,"CNc1ccc(-c2ccnc3c2cc(CN2CCC(c4c(F)cc(C(=O)N5CCC(CN6CCN(c7cc8c(cc7F)n(C7CCC(=O)NC7=O)c(=O)n8C)CC6)CC5)cc4F)CC2)n3C)cn1 (stereo not drawn) [Example 3h49, 3-(5-(4-((1-(3,5-difluoro-4-(1-((1-methyl-4-(6-(methylamino)pyridin-3-yl)-1H-pyrrolo[2,3-b]pyridin-2-yl)methyl)piperidin-4-yl)benzoyl)piperidin-4-yl)methyl)piperazin-1-yl)-6-fluoro-3-methyl-2-oxo-2,3-dihydro-1H-benzo[d]imidazol-1-yl)piperidine-2,6-dione]"
2,20 to 30,"Cn1c(CN2CCC(c3ccc(C(=O)N4CCN(CC5CCN(Cc6cccc7c6n(C)c(=O)n7C6CCC(=O)NC6=O)CC5)CC4)cc3)CC2)cc2c(-c3ccc4[nH]ncc4c3)ccnc21 (stereo not drawn) [Example 3k1, 3-(4-((4-((4-(4-(1-((4-(1H-indazol-5-yl)-1-methyl-1H-pyrrolo[2,3-b]pyridin-2-yl)methyl)-piperidin-4-yl)benzoyl)piperazin-1-yl)methyl)piperidin-1-yl)methyl)-3-methyl-2-oxo-2,3-dihydro-1H-benzo[d]imidazol-1-yl)piperidine-2,6-dione]"
3,< 20,"Cn1c(CN2CCC(c3ccc(C(=O)N4CCC(N5CCN(Cc6cccc7c6n(C)c(=O)n7C6CCC(=O)NC6=O)CC5)CC4)cc3)CC2)cc2c(-c3ccc4[nH]ncc4c3)ccnc21 (stereo not drawn) [Example 3j2, 3-(4-((4-(1-(4-(1-((4-(1H-indazol-5-yl)-1-methyl-1H-pyrrolo[2,3-b]pyridin-2-yl)methyl)piperidin-4-yl)benzoyl)piperidin-4-yl)piperazin-1-yl)methyl)-3-methyl-2-oxo-2,3-dihydro-1H-benzo[d]imidazol-1-yl)piperidine-2,6-dione]"
4,20 to 30,"Cn1c(CN2CCC(c3ccc(C(=O)N4CCC(N5CCN(Cc6ccc7c(c6)n(C)c(=O)n7C6CCC(=O)NC6=O)CC5)CC4)cc3)CC2)cc2c(-c3ccc4[nH]ncc4c3)ccnc21 (stereo not drawn) [Example 3j1, 3-(5-((4-(1-(4-(1-((4-(1H-indazol-5-yl)-1-methyl-1H-pyrrolo[2,3-b]pyridin-2-yl)methyl)piperidin-4-yl)benzoyl)piperidin-4-yl)piperazin-1-yl)methyl)-3-methyl-2-oxo-2,3-dihydro-1H-benzo[d]imidazol-1-yl)piperidine-2,6-dione]"
5,< 20,"Cn1c(CN2CCC(c3ccc(C(=O)N4CCC(CN5CCC(c6cccc7c6n(C)c(=O)n7C6CCC(=O)NC6=O)CC5)CC4)cc3)CC2)cc2c(-c3ccc4[nH]ncc4c3)ccnc21 (stereo not drawn) [Example 3t1, 3-(4-(1-((1-(4-(1-((4-(1H-indazol-5-yl)-1-methyl-1H-pyrrolo[2,3-b]pyridin-2-yl)methyl)piperidin-4-yl)benzoyl)piperidin-4-yl)methyl)piperidin-4-yl)-3-methyl-2-oxo-2,3-dihydro-1H-benzo[d]imidazol-1-yl)piperidine-2,6-dione]"
